≈ marks a conversion by molar mass, not a printed value. Read-outs that look alike come from different tables or passages of the source. *1 amine or outer side, *2 acyl side, *3 side chain or, on linkers, in order; H or OH if unused. Where a SMILES comes first, the peptide text is derived from it. Bridges are numbered along the chain shown (N, C = ends). [ ]: non-standard residue; d: D form. The star is where a group is joined. NH(1,3-benzodioxol-5-yl) = c1cc2c(cc1N*)OCO2; Phe(3,5-F2) = N[C@@H](Cc1cc(F)cc(F)c1)C(=O)O; NH(1-Me-indolin-5-yl) = CN1CCc2cc(N*)ccc21; Morpholine(3S-CO) = O=C(O)[C@@H]1COCCN1; NH(4-Cl-2-F-phenyl) = Fc1cc(Cl)ccc1N*; Pro(4R-Me) = C[C@H]1CN[C@H](C(=O)O)C1; Hyp = O=C(O)[C@@H]1C[C@@H](O)CN1; NH(4-Et-phenyl) = CCc1ccc(N*)cc1; aThr = C[C@H](O)[C@H](N)C(=O)O; Pip = O=C(O)[C@@H]1CCCCN1; X2 = CN1CCc2ccc(N*)cc21; X4 = c1cc2c(cc1N*)CCC2; X8 = c1cc2c(cc1N*)CCO2; CO = O=C([*:1])[*:2]
Experiments:
[1] = test system: Staphylococcus aureus, USA 300; test: Minimal inhibitory concentration assay; type: cell-based; settings: USA300, read-out: Minimal Inhibitory Concentrations S. aureus USA 300
Outline: (§1)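 Compound is serially diluted two-fold in the appropriate broth, and bacterial inoculum at about 10^5 cfu/mL is added so the highest final concentration is 200 μM. Plates stay overnight at 37 °C under aerobic conditions before growth is scored by eye.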

[2] = test system: Staphylococcus aureus, USA 300 wherein ClpP is inactivated; test: Minimal inhibitory concentration assay; type: cell-based
Outline: as §1

[3] = test system: Enterococcus faecalis, ATCC 33186; test: Minimal inhibitory concentration assay (microbroth dilution); type: cell-based
Outline: as §1

[4] = molecular target: T1, Sa-ClpP (Staphylococcus aureus, UniProt Q2G036); test: ADEP displacement fluorescence polarization assay (FP probe ADEP 2591); type: binding
T1 construct: made in house; host or cells: E. coli BL21(DE3)
T1 sequence (Q2G036 1-195): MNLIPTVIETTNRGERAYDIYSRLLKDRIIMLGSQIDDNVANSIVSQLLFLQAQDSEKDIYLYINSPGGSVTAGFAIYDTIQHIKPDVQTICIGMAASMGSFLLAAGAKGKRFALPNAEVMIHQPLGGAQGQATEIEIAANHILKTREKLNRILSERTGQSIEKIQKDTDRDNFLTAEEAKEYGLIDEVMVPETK
Procedure: A fluorescence polarization (FP) assay was used to determine the activity of the disclosed compounds in displacing an ADEP analogue from ClpP. Briefly, the assay was performed in black 384 well, flat bottom, low volume plates (Greiner Bio-One, Monroe, N.C., catalog #784076). 20 μL of a pre-equilibrated (1 hr, room temperature) master mix (15 μM Sa-ClpP, 2% DMSO (v/v) and 50 nM FP probe in Tris*HCl, pH 8.0)) was pipetted into each well using a Well-Mate (Thermo Scientific, Waltham, Mass.). Sa-ClpP was prepared as described above for the ClpP activation assay. The FP probe was ADEP 2591 (structure shown above). The ADEP 2591 comprises a TAMRA fluorophore linked to a core based on modified ADEP 2378 via a short alkyl linker. Using pin transfer, approximately 0.4 μL (2% v/v DMSO) of each compound or control was added per well. After addition of compounds and controls, plates were allowed to incubate for an additional 120 minutes at room temperature. All assays were performed in triplicate. Polarization was monitored using an EnVision Multilabel reader (Perkin-Elmer, Waltham, Mass.) by exciting the FP probe at 530±25 nm, and monitoring fluorescence intensity of both parallel and perpendicular polarized light at 579±25 nm. Readout was in millipolarization units (mP).
Data collected was normalized to values obtained from positive (200 μM ADEP 2378) or negative (DMSO) controls. Curves were fit with non-linear regression using the equation “log [inhibitor] vs. Response-variable slope (four parameters)-symmetrical” in the program Prism 6 (GraphPad Software, La Jolla, Calif. USA, www.graphpad.com). The structures for ADEP 2378 and ADEP 2591 are shown above. ADEP 2378 is (E)-N—((S)-1-(((2R,6S,8aS,14aS,20S,23aS)-2,6-dimethyl-5,8,14,19,23-pentaoxooctadecahydro-1H,5H,14H,19H-pyrido[2,1-i]dipyrrolo[2,1-c:2′,1′-1][1]oxa[4,7,10,13]tetraazacyclohexadecin-20-yl)amino)-1-oxo-3-phenylpropan-2-yl)pent-2-enamide. ADEP 2591 is 5-(3-(3-((6S,9S,11aS,17S,20aS)-6,10-dimethyl-5,8,11,16,20-pentaoxo-17-((S)-2-((E)-pent-2-enamido)-3-phenylpropanamido)hexadecahydro-1H,5H,16H-dipyrrolo[2,1-c:2′,1′-1][1]oxa[4,7,10,13]tetraazacyclohexadecin-9-yl)propyl)thioureido)-2-(6-(dimethylamino)-3-(dimethyliminio)-3H-xanthen-9-yl)benzoate.

[5] = Enterococcus faecalis, ATCC33186, read-out: Minimal Inhibitory Concentrations E. faecalis ATCC 33186
[6] = Enterococcus faecalis, ATCC33186; read-out: Minimal Inhibitory Concentrations E. faecalis ATCC 33186

SMILES | MIC [1] | Minimal Inhibitory Concentrations S. aureus USA 300 ΔClpP [2] | MIC [3, 5] | IC50 [4] | MIC [3, 6]
C[C@@H]1C[C@H]2C(=O)O[C@@H](C)[C@H](NC(=O)[C@H](Cc3cc(F)cc(F)c3)NC(=O)Nc3ccc4c(c3)CCN4C)C(=O)N3CCC[C@H]3C(=O)N3CCCC[C@H]3C(=O)N[C@@H](C)C(=O)N2C1 [Compound 310, (S)-3-(3,5-difluorophenyl)-2-(3-(1-methylindolin-5-yl)ureido)-N-((2R,6S,8aS,14aS,20S,21S,23aS)-2,6,21-trimethyl-5,8,14,19,23-pentaoxooctadecahydro-1H,5H,14H,19H-pyrido[2,1-i]dipyrrolo[2,1-c:2′,1′-l][1]oxa[4,7,10,13]tetraazacyclo-hexadecin-20-yl)propanamide] ({NH(1-Me-indolin-5-yl)-CO}-[Phe(3,5-F2)][aThr]P[Pip]A[Pro(4R-Me)]; ester 2-C) | 0.078 µM (≈ 0.0662 µg/mL) | >20 µM | 0.313 µM (≈ 0.266 µg/mL) | 6.9 ± 0.3 µM | –
CCc1ccc(NC(=O)N[C@@H](Cc2cc(F)cc(F)c2)C(=O)N[C@@H]2C(=O)N3C[C@H](O)C[C@H]3C(=O)N3CCOC[C@H]3C(=O)N[C@@H](C)C(=O)N3C[C@H](C)C[C@H]3C(=O)O[C@H]2C)cc1 [Compound 320, (S)-3-(3,5-difluorophenyl)-2-(3-(4-ethylphenyl)ureido)-N-((6aS,8R,12S,13S,15aS,17R,21S,23aS)-8-hydroxy-13,17,21-trimethyl-6,11,15,20,23-pentaoxooctadecahydro-6H,11H,15H-[1,4]oxazino[3,4-i]dipyrrolo[2,1-c:2′,1′-l][1]oxa[4,7,10,13]-tetraazacyclohexadecin-12-yl)propanamide] ({NH(4-Et-phenyl)-CO}-[Phe(3,5-F2)][aThr][Hyp][Morpholine(3S-CO)]A[Pro(4R-Me)]; ester 2-C) | 0.781 µM (≈ 0.656 µg/mL) | 0.7812 µM | – | 7.48 ± 0.6 µM | 0.078 µM (≈ 0.0655 µg/mL)
C[C@@H]1C[C@H]2C(=O)O[C@@H](C)[C@H](NC(=O)[C@H](Cc3cc(F)cc(F)c3)NC(=O)Nc3ccc4c(c3)OCO4)C(=O)N3C[C@H](O)C[C@H]3C(=O)N3CCOC[C@H]3C(=O)N[C@@H](C)C(=O)N2C1 [Compound 319, (S)-2-(3-(benzo[d][1,3]dioxol-5-yl)ureido)-3-(3,5-difluorophenyl)-N-((6aS,8R,12S,13S,15aS,17R,21S,23aS)-8-hydroxy-13,17,21-trimethyl-6,11,15,20,23-pentaoxooctadecahydro-6H,11H,15H-[1,4]oxazino[3,4-i]dipyrrolo[2,1-c:2′,1′-l][1]oxa[4,7,10,13]tetraazacyclo-hexadecin-12-yl)propanamide] ({NH(1,3-benzodioxol-5-yl)-CO}-[Phe(3,5-F2)][aThr][Hyp][Morpholine(3S-CO)]A[Pro(4R-Me)]; ester 2-C) | 25 µM (≈ 21.4 µg/mL) | 25 µM | – | 7.75 ± 0.6 µM | 0.313 µM (≈ 0.268 µg/mL)
C[C@@H]1C[C@H]2C(=O)O[C@@H](C)[C@H](NC(=O)[C@H](Cc3cc(F)cc(F)c3)NC(=O)Nc3ccc4c(c3)CCC4)C(=O)N3CCC[C@H]3C(=O)N3CCCC[C@H]3C(=O)N[C@@H](C)C(=O)N2C1 [Compound 302, (S)-3-(3,5-difluorophenyl)-2-(3-(2,3-dihydro-1H-INDEN-5-yl)ureido)-N-((2R,6S,8aS,14aS,20S,21S,23aS)-2,6,21-trimethyl-5,8,14,19,23-pentaoxooctadecahydro-1H,5H,14H,19H-pyrido[2,1-i]dipyrrolo[2,1-c:2′,1′-l][1]oxa[4,7,10,13]tetraazacyclohexadecin-20-yl)propanamide] ({X4-CO}-[Phe(3,5-F2)][aThr]P[Pip]A[Pro(4R-Me)]; ester 2-C) | 0.059 µM (≈ 0.0492 µg/mL) | >20 µM | 0.02 µM (≈ 0.0167 µg/mL) | 9.64 ± 0.6 µM | –
C[C@@H]1C[C@H]2C(=O)O[C@@H](C)[C@H](NC(=O)[C@H](Cc3cc(F)cc(F)c3)NC(=O)Nc3ccc(Cl)cc3F)C(=O)N3CCC[C@H]3C(=O)N3CCCC[C@H]3C(=O)N[C@@H](C)C(=O)N2C1 [Compound 307, (S)-2-(3-(4-chloro-2-fluorophenyl)ureido)-3-(3,5-difluorophenyl)-N-((2R,6S,8aS,14aS,20S,21S,23aS)-2,6,21-trimethyl-5,8,14,19,23-pentaoxooctadecahydro-1H,5H,14H,19H-pyrido[2,1-i]dipyrrolo[2,1-c:2′,1′-l][1]oxa[4,7,10,13]tetraazacyclo-hexadecin-20-yl)propanamide] ({NH(4-Cl-2-F-phenyl)-CO}-[Phe(3,5-F2)][aThr]P[Pip]A[Pro(4R-Me)]; ester 2-C) | < 0.02 µM | >20 µM | – | 7.8 ± 0.4 µM | < 0.02 µM
C[C@@H]1C[C@H]2C(=O)OC[C@H](NC(=O)[C@H](Cc3cc(F)cc(F)c3)NC(=O)Nc3ccc4c(c3)OCO4)C(=O)N3C[C@H](O)C[C@H]3C(=O)N3CCOC[C@H]3C(=O)N[C@@H](C)C(=O)N2C1 [Compound 318, (S)-2-(3-(benzo[d][1,3]dioxol-5-yl)ureido)-3-(3,5-difluorophenyl)-N-((6aS,8R,12S,15aS,17R,21S,23aS)-8-hydroxy-17,21-dimethyl-6,11,15,20,23-pentaoxooctadecahydro-6H,11H,15H-[1,4]oxazino[3,4-i]dipyrrolo[2,1-c:2′,1′-l][1]oxa[4,7,10,13]tetraazacyclo-hexadecin-12-yl)propanamide] ({NH(1,3-benzodioxol-5-yl)-CO}-[Phe(3,5-F2)]S[Hyp][Morpholine(3S-CO)]A[Pro(4R-Me)]; ester 2-C) | 100 µM (≈ 84.2 µg/mL) | – | – | 6.54 ± 0.5 µM | > 20 µM
C[C@@H]1C[C@H]2C(=O)O[C@@H](C)[C@H](NC(=O)[C@H](Cc3cc(F)cc(F)c3)NC(=O)Nc3ccc4c(c3)CCO4)C(=O)N3CCC[C@H]3C(=O)N3CCCC[C@H]3C(=O)N[C@@H](C)C(=O)N2C1 [Compound 305, (S)-3-(3,5-difluorophenyl)-2-(3-(2,3-dihydrobenzofuran-5-yl)ureido)-N-((2R,6S,8aS,14aS,20S,21S,23aS)-2,6,21-trimethyl-5,8,14,19,23-pentaoxooctadecahydro-1H,5H,14H,19H-pyrido[2,1-i]dipyrrolo[2,1-c:2′,1′-l][1]oxa[4,7,10,13]tetraazacyclo-hexadecin-20-yl)propanamide] ({X8-CO}-[Phe(3,5-F2)][aThr]P[Pip]A[Pro(4R-Me)]; ester 2-C) | 0.24 µM (≈ 0.201 µg/mL) | >20 µM | 0.029 µM (≈ 0.0242 µg/mL) | 7.65 ± 0.5 µM | –
C[C@@H]1C[C@H]2C(=O)O[C@@H](C)[C@H](NC(=O)[C@H](Cc3cc(F)cc(F)c3)NC(=O)Nc3ccc4c(c3)N(C)CC4)C(=O)N3CCC[C@H]3C(=O)N3CCCC[C@H]3C(=O)N[C@@H](C)C(=O)N2C1 [Compound 321, (S)-3-(3,5-difluorophenyl)-2-(3-(1-methylindolin-6-yl)ureido)-N-((2R,6S,8aS,14aS,20S,21S,23aS)-2,6,21-trimethyl-5,8,14,19,23-pentaoxooctadecahydro-1H,5H,14H,19H-pyrido[2,1-i]dipyrrolo[2,1-c:2′,1′-l][1]oxa[4,7,10,13]tetraazacyclo-hexadecin-20-yl)propanamide] ({X2-CO}-[Phe(3,5-F2)][aThr]P[Pip]A[Pro(4R-Me)]; ester 2-C) | < 0.098 µM | <0.098 µM | 0.078 µM (≈ 0.0662 µg/mL) | 8.23 ± 0.7 µM | –

Reference: patent US10457707B2, “Substituted urea depsipeptide analogs as activators of the CLPP endopeptidase” (priority 2015, dated 2019)
